The subject of one data set is 1a-H77 replicons. The experiment in a line: Predominant resistant variants selected in replicons, fold resistance. Format: cell-based, Hepatitis C virus. How it is done: (§1) Predominant resistant variants selected by Compound 1, 2, or 4 in genotype 1 replicons were also determined.
In general terms: In antiviral work, replicon cells carry a viral genome segment that copies itself.

For a further data set, the system named is 1b-Con1 replicons. Described as above. Format: cell-based, Hepatitis C virus. How it is done: as §1
Data set [1] in a line: Bioavailability of solid formulation of Compound 2 with increased binder. Format: in vivo. As to conditions: 250 mg in the improved formulation versus 400 mg in the original formulation.

Each structure is given as a SMILES string.

From patent US9452194B2, “Methods for treating HCV” (AbbVie Inc., priority 2011, dated 2016) come the findings set out here.

On to `Cc1cnc(C(=O)N[C@H]2CCCCC/C=C\[C@@H]3C[C@@]3(C(=O)NS(=O)(=O)C3CC3)NC(=O)[C@@H]3C[C@@H](Oc4nc5ccccc5c5ccccc45)CN3C2=O)cn1` [Compound 1, (2R,6S,13aS,14aR,16aS,Z)-N-(cyclopropylsulfonyl)-6-(5-methylpyrazine-2-carboxamido)-5,16-dioxo-2-(phenanthridin-6-yloxy)-1,2,3,5,6,7,8,9,10,11,13a,14,14a,15,16,16a-hexadecahydrocyclopropa[e]pyrrolo[1,2-a][1,4]diazacyclopentadecine-14a-carboxamide], for which the fold resistance in the data set with 1a-H77 replicons (variant D168A) was 48 fold; in the data set on 1a-H77 replicons (variant R155K), 26 fold; in the data set with 1b-Con1 replicons (variant A156T) it was 9 fold; with 1b-Con1 replicons (variant D168V), 190 fold; in the data set with 1b-Con1 replicons (variant R155K), 48 fold.
As to `COc1c(-c2ccc3cc(NS(C)(=O)=O)ccc3c2)cc(-n2ccc(=O)[nH]c2=O)cc1C(C)(C)C` [Compound 2, N-(6-(3-tert-butyl-5-(2,4-dioxo-3,4-dihydropyrimidin-1(2H)-yl)-2-methoxyphenyl)naphthalen-2-yl)methanesulfonamide], in data set [1], the “bioequivalence of improved solid formulation (increased amount of binder, e.g. copovidone)” value is listed as “bioequivalent”. The fold resistance is listed as 1600 fold in the data set on 1a-H77 replicons (variant C316Y); 36 fold in the data set on 1a-H77 replicons (variant M414T); 15 fold in the data set with 1a-H77 replicons (variant S556G); 980 fold with 1a-H77 replicons (variant Y448C); 1400 fold in the data set with 1b-Con1 replicons (variant C316Y); 100 fold in the data set with 1b-Con1 replicons (variant D559G). In addition, the fold resistance in the data set with 1b-Con1 replicons (variant M414T) was found to be 26 fold.
Consider `COC(=O)N[C@H](C(=O)N1CCC[C@H]1C(=O)Nc1ccc([C@@H]2CC[C@@H](c3ccc(NC(=O)[C@@H]4CCCN4C(=O)[C@@H](NC(=O)OC)C(C)C)cc3)N2c2ccc(C(C)(C)C)cc2)cc1)C(C)C` [Compound 4], for which the fold resistance is given as 9000 fold with 1a-H77 replicons (variant M28T); 60 fold in the data set on 1a-H77 replicons (variant M28V); 800 fold in the data set on 1a-H77 replicons (variant Q30R); 1700 fold with 1a-H77 replicons (variant Y93C); 41000 fold with 1a-H77 replicons (variant Y93H); 55 fold with 1b-Con1 replicons (variant Y93H).
